Experimental data published in US20250179066A1, “ZWITTERIONIC ANTIBACTERIAL COMPOUNDS” (Hoffmann-La Roche Inc., priority 2022, published 2025).
Structures can show the parent of a compound that is named as a salt. Where two headings read alike, the source gives them in different places.

Tested on: Acinetobacter baumannii ATCC17961
Test: Antimicrobial susceptibility testing: 90% growth inhibitory concentration (IC90) determination
Format: cell-based
Conditions: 90% growth inhibitory concentration against Acinetobacter baumannii ATCC17961, Iso-Sensitest broth, OD 600 nm over 16 h, read-out: ATCC 17961 IC90
How it was run: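 OD600 monitored each minute over 16 h at 35±2° C for bacteria (~5×10^5 CFU/mL final) in Iso-Sensitest medium with 10-point twofold compound series (e.g. 10-0.0195 μM final). Concentration giving 90% growth inhibition in log phase reported as IC90.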

[1] = Acinetobacter baumannii, ATCC17961, 16 h

IC90 [1] [nM]	Compound	IC90 [nM]
1370	Cn1c(-c2cn(-c3ccc(N)cn3)nc2C(F)(F)F)cnc1C(=O)Nc1ccc(C(=O)N2CCN(C(=O)C3CC[N+](CC(=O)O)(CC4CNC4)CC3)C3(CC3)C2)c(Cl)c1 (centres unmarked) [Example 86, 2-[4-[7-[4-[[5-[1-(5-amino-2-pyridyl)-3-(trifluoromethyl)pyrazol-4-yl]-1-methyl-imidazole-2-carbonyl]amino]-2-chloro-benzoyl]-4,7-diazaspiro[2.5]octane-4-carbonyl]-1-(azetidin-3-ylmethyl)piperidin-1-ium-1-yl]acetic acid. 1:1 formate]	
1410	Cn1c(-c2cn(-c3ccc(N)cn3)nc2C(F)(F)F)cnc1C(=O)Nc1ccc(C(=O)N2CCC(C(=O)N3CC[N+](CC(=O)O)(CC4CNC4)CC3)CC2)c(Cl)c1 [Example 87, 2-[4-[1-[4-[[5-[1-(5-amino-2-pyridyl)-3-(trifluoromethyl)pyrazol-4-yl]-1-methyl-imidazole-2-carbonyl]amino]-2-chloro-benzoyl]piperidine-4-carbonyl]-1-(azetidin-3-ylmethyl)piperazin-1-ium-1-yl]acetic acid. 1:1 2,2,2-trifluoroacetate]	
1410	CNc1cc(-n2cc(-c3cnc(C(=O)Nc4ccc(C(=O)N5CCN(C(=O)C6CC[N+](CC(=O)O)(CC7CNC7)CC6)CC5)c(Cl)c4)n3C)c(C(F)(F)F)n2)ccn1 (centres unmarked) [Example 88, 2-[1-(azetidin-3-ylmethyl)-4-[4-[2-chloro-4-[[1-methyl-5-[1-[2-(methylamino)-4-pyridyl]-3-(trifluoromethyl)pyrazol-4-yl]imidazole-2-carbonyl]amino]benzoyl]piperazine-1-carbonyl]piperidin-1-ium-1-yl]acetic acid. 1:1 2,2,2-trifluoroacetate]	
1520	Cn1c(-c2cn(-c3ccc(N)cn3)nc2C(F)(F)F)cnc1C(=O)Nc1ccc(C(=O)N2CCN(C(=O)CC[C@H](N)C(=O)O)CC2)c(Cl)c1 [Example 90, (2S)-2-amino-5-[4-[4-[[5-[1-(5-amino-2-pyridyl)-3-(trifluoromethyl)pyrazol-4-yl]-1-methyl-imidazole-2-carbonyl]amino]-2-chloro-benzoyl]piperazino]-5-keto-valeric acid. 1:1 2,2,2-trifluoroacetic acid]	
1530	Cn1c(-c2cn(-c3ccc(N)cn3)nc2C(F)(F)F)cnc1C(=O)Nc1ccc(C(=O)N2CCN(C(=O)[C@@H](N)CC(=O)O)CC2)c(Cl)c1 [Example 91, (3S)-3-amino-4-[4-[4-[[5-[1-(5-amino-2-pyridyl)-3-(trifluoromethyl)pyrazol-4-yl]-1-methyl-imidazole-2-carbonyl]amino]-2-chloro-benzoyl]piperazino]-4-keto-butyric acid. 1:1 2,2,2-trifluoroacetic acid]	
1620	Cn1c(-c2cn(-c3ccc(N)cn3)nc2C(F)(F)F)cnc1C(=O)Nc1ccc(C(=O)N2CC3CC4(C(=O)C5CC[N+](CC(=O)O)(CC6CNC6)CC5)CC(C2)N34)c(Cl)c1 (centres unmarked) [Example 92, 2-[4-[3-[4-[[5-[1-(5-amino-2-pyridyl)-3-(trifluoromethyl)pyrazol-4-yl]-1-methyl-imidazole-2-carbonyl]amino]-2-chloro-benzoyl]-3,9-diazabicyclo[3.3.1]nonane-9-carbonyl]-1-(azetidin-3-ylmethyl)piperidin-1-ium-1-yl]acetic acid. 1:1 formate]	
1660	Cn1c(-c2cn(-c3ccc(N)cn3)nc2C(F)(F)F)cnc1C(=O)Nc1ccc(C(=O)N2CCN(C(=O)C3CC[N+](CC(=O)O)(CC4CNC4)CC3)CC23CC3)c(Cl)c1 (centres unmarked) [Example 93, 2-[4-[4-[4-[[5-[1-(5-amino-2-pyridyl)-3-(trifluoromethyl)pyrazol-4-yl]-1-methyl-imidazole-2-carbonyl]amino]-2-chloro-benzoyl]-4,7-diazaspiro[2.5]octane-7-carbonyl]-1-(azetidin-3-ylmethyl)piperidin-1-ium-1-yl]acetic acid. 1:1 formate]	
1730	Cn1c(-c2cn(-c3sncc3N)nc2C(F)(F)F)cnc1C(=O)Nc1ccc(C(=O)N2CCN(C(=O)C3CC[N+](CC(=O)O)(CC4CNC4)CC3)CC2)c(Cl)c1 (centres unmarked) [Example 94, 2-[4-[4-[4-[[5-[1-(4-Aminoisothiazol-5-yl)-3-(trifluoromethyl)pyrazol-4-yl]-1-methyl-imidazole-2-carbonyl]amino]-2-chloro-benzoyl]piperazine-1-carbonyl]-1-(azetidin-3-ylmethyl)piperidin-1-ium-1-yl]acetic Acid.1:1 formate]	
	Cn1c(-c2cn(-c3cc4ccccc4s3)nc2C(F)(F)F)cnc1C(=O)Nc1ccc(C(=O)N2CCN(C(=O)C3CC[N+](CC(=O)O)(CC4CNC4)CC3)CC2)c(Cl)c1 (centres unmarked) [Example 95, 2-[1-(Azetidin-3-ylmethyl)-4-[4-[4-[[5-[1-(benzothiophen-2-yl)-3-(trifluoromethyl)pyrazol-4-yl]-1-methyl-imidazole-2-carbonyl]amino]-2-chloro-benzoyl]piperazine-1-carbonyl]piperidin-1-ium-1-yl]Acetic Acid; Formic Acid; Formate]	1760
1820	Cn1c(-c2cn(-c3ccc(N)cn3)nc2C(F)(F)F)cnc1C(=O)Nc1ccc(C(=O)N2CCC(C(=O)NCCCc3cc[n+](CC(=O)O)c(CCCN)c3)CC2)c(Cl)c1 [Example 96, 2-[2-(3-aminopropyl)-4-[3-[[1-[4-[[5-[1-(5-amino-2-pyridyl)-3-(trifluoromethyl)pyrazol-4-yl]-1-methyl-imidazole-2-carbonyl]amino]-2-chloro-benzoyl]piperidine-4-carbonyl]amino]propyl]pyridin-1-ium-1-yl]acetic acid. 1:1 2,2,2-trifluoroacetic acid. 1:1 2,2,2-trifluoroacetate]	
1840	COCC1CN(C(=O)c2ccc(NC(=O)c3ncc(-c4cn(-c5ccc(N)cn5)nc4C(F)(F)F)n3C)cc2Cl)CCN1C(=O)C1CC[N+](CC(=O)O)(CC2CNC2)CC1 (centres unmarked) [Example 97, 2-[4-[4-[4-[[5-[1-(5-amino-2-pyridyl)-3-(trifluoromethyl)pyrazol-4-yl]-1-methyl-imidazole-2-carbonyl]amino]-2-chloro-benzoyl]-2-(methoxymethyl)piperazine-1-carbonyl]-1-(azetidin-3-ylmethyl)piperidin-1-ium-1-yl]acetic acid. 1:1 formate]	
387	Cn1c(-c2cn(-c3ccc4[nH]c(CCCO)cc4n3)nc2C(F)(F)F)cnc1C(=O)Nc1ccc(C(=O)N2CCN(C(=O)C3CC[N+](CCCN)(CC(=O)O)CC3)CC2)c(Cl)c1 (stereo not drawn) [Example 98, cis-2-[1-(3-aminopropyl)-4-[4-[2-chloro-4-[[5-[1-[2-(3-hydroxypropyl)-1H-pyrrolo[3,2-b]pyridin-5-yl]-3-(trifluoromethyl)pyrazol-4-yl]-1-methyl-imidazole-2-carbonyl]amino]benzoyl]piperazine-1-carbonyl]piperidin-1-ium-1-yl]acetic acid;chloride]	
361	Cn1c(-c2cn(-c3ccc4[nH]c(CCC(N)=O)cc4n3)nc2C(F)(F)F)cnc1C(=O)Nc1ccc(C(=O)N2CCN(C(=O)[C@H]3CC[N@@+](CCCN)(CC(=O)O)CC3)CC2)c(Cl)c1 [Example 99, cis-2-[4-[4-[4-[[5-[1-[2-(3-amino-3-oxo-propyl)-1H-pyrrolo[3,2-b]pyridin-5-yl]-3-(trifluoromethyl)pyrazol-4-yl]-1-methyl-imidazole-2-carbonyl]amino]-2-chloro-benzoyl]piperazine-1-carbonyl]-1-(3-aminopropyl)piperidin-1-ium-1-yl]acetic acid;2,2,2-trifluoroacetate]	
195	Cn1c(-c2cn(-c3ccc(N4CCOCC4)cc3F)nc2C(F)(F)F)cnc1C(=O)Nc1ccc(C(=O)N2CCN(C(=O)[C@H]3CC[N@@+](CCCN)(CC(=O)O)CC3)CC2)c(Cl)c1 [Example 100, cis-2-[1-(3-aminopropyl)-4-[4-[2-chloro-4-[[5-[1-(2-fluoro-4-morpholino-phenyl)-3-(trifluoromethyl)pyrazol-4-yl]-1-methyl-imidazole-2-carbonyl]amino]benzoyl]piperazine-1-carbonyl]piperidin-1-ium-1-yl]acetic acid;formate]	
338	Cc1cc(NC(=O)c2ncc(-c3cn(-c4ccc5[nH]c([C@H](C)O)cc5n4)nc3C(F)(F)F)n2C)ccc1C(=O)N1CCN(C(=O)[C@H]2CC[N@@+](CCCN)(CC(=O)O)CC2)CC1 [Example 101, cis-2-[1-(3-aminopropyl)-4-[4-[4-[[5-[1-[2-[(1S)-1-hydroxyethyl]-1H-pyrrolo[3,2-b]pyridin-5-yl]-3-(trifluoromethyl)pyrazol-4-yl]-1-methyl-imidazole-2-carbonyl]amino]-2-methyl-benzoyl]piperazine-1-carbonyl]piperidin-1-ium-1-yl]acetic acid;chloride]	
445	Cn1c(-c2cn(-c3ccc4[nH]c(C(CO)CO)cc4n3)nc2C(F)(F)F)cnc1C(=O)Nc1ccc(C(=O)N2CCN(C(=O)[C@H]3CC[N@@+](CCCN)(CC(=O)O)CC3)CC2)c(Cl)c1 [Example 102, cis-2-[1-(3-aminopropyl)-4-[4-[2-chloro-4-[[5-[1-[2-[2-hydroxy-1-(hydroxymethyl)ethyl]-1H-pyrrolo[3,2-b]pyridin-5-yl]-3-(trifluoromethyl)pyrazol-4-yl]-1-methyl-imidazole-2-carbonyl]amino]benzoyl]piperazine-1-carbonyl]piperidin-1-ium-1-yl]acetic acid;formate]	

Compound	IC90 [1] [nM]	IC90 [nM]
Cn1c(-c2cn(-c3ccc(N)cn3)nc2C(F)(F)F)cnc1C(=O)Nc1ccc(C(=O)N2C3CCC2CN(C(=O)C2CC[N+](CC(=O)O)(CC4CNC4)CC2)C3)c(Cl)c1 (centres unmarked) [Example 89, 2-[4-[8-[4-[[5-[1-(5-amino-2-pyridyl)-3-(trifluoromethyl)pyrazol-4-yl]-1-methyl-imidazole-2-carbonyl]amino]-2-chloro-benzoyl]-3,8-diazabicyclo[3.2.1]octane-3-carbonyl]-1-(azetidin-3-ylmethyl)piperidin-1-ium-1-yl]acetic acid. 1:1 formate]	1490	
